Results on three compounds are retold here after patent US11098072B2, “Alkenyl and beta-substituted phosphonates as antimicrobial agents” (The George Washington University, priority 2017, dated 2021).

Like-named read-outs stand apart in the source and are kept apart here.

The target of data set [1] is T1, P. falciparum DXR (Plasmodium falciparum, UniProt Q8IKG4).
T1 sequence (Q8IKG4 73-488): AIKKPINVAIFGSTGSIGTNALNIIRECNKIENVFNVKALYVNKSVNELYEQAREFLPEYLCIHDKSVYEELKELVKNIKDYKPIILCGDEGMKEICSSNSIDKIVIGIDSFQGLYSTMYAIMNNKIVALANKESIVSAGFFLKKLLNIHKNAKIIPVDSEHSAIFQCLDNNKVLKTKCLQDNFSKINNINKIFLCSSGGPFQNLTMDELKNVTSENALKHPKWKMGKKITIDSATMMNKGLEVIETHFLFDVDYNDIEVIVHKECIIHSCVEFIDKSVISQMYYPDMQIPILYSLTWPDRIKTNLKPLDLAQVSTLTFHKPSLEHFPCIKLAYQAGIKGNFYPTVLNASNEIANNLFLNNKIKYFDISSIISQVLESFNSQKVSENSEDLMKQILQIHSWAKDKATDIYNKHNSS
As to conditions: read-out: Pf DXR IC50; Table 2, footnote a: Gießmann et al. 2008; cited from earlier work.

Data set [2] deals with P. falciparum. The following applies: Table 6, footnote b: Edwards et al. 2017; read-out: P.f. IC50; cited from earlier work.
Data set [3] deals with Mtb. As to conditions: footnote a: Jackson et al. 2014, cited from earlier work.
For data set [4], the system named is P. falciparum. The data set can be described thus: Growth inhibition against P. falciparum. Type of data set: cell-based. As to conditions: Plasmodium falciparum.
In data set [5] the test system is P. falciparum had1 mutant strain. It counts as cell-based.
For data set [6], the system named is DXR. The following applies: versus substrate DOXP and cofactor NADPH; cited from earlier work.
The subject of data set [7] is HepG2 cells. The data set can be described thus: HepG2 cell inhibition (cytotoxicity) assay. It counts as cell-based. The following applies: Homo sapiens, HepG2; Table 5, cytotoxicity; read-out: HepG2 IC50. How it is done:
For cytotoxicity assays, HepG2 cells (ATCC HB-8065) were grown in DMEM supplemented with 4 mM L-glutamine (Gibco #11966-025) with either 4.5 g/L D-glucose or 1.8 g/L galactose as carbon source. Cells were trypsinized, resuspended in the respective medium (DMEM/glutamine/glucose or DMEM/glutamine/galactose) to 4×10^5 cells/mL and 50 μL/well transferred to flat-bottom white opaque tissue culture plates (Falcon #353296) containing 50 μL/well of the respective medium with test compound. Compound concentrations were two-fold dilutions ranging from 50 μM to 0.049 μM as well as the drug-free DMSO-only control. All concentrations were tested in duplicate for each carbon source. After 24 h incubation at 5% CO2, 37° C., 10 μL/well of Celltiter-Glo reagent (Promega #G9241) was added and luminescence recorded after 20 min incubation in the dark.

The nature of data set [8]: Metabolic stability in mouse liver microsomes. Type of data set: in vitro ADME. As to conditions: pH 7.4. The procedure: (§1) In this protocol, the metabolic stability of compounds at 1 μM was determined in mouse liver microsomes (MLM) and mouse plasma. For microsomal stability each test compound was incubated in an aqueous reaction mixture consisting of 0.25 […], 1.2 mM NADPH, 3.3 mM MgCl2, and 100 mM potassium phosphate buffer (pH 7.4). For plasma stability each test compound was incubated in mouse plasma (VWR). After incubation at 37° C. a 50 μL aliquot of the reaction was transferred to 200 μL ice cold acetonitrile containing internal standard (Enalapril, 100 ng/mL). The quenched reaction mixtures were centrifuged at 3200 rpm for 5 min, and 100 μL of the supernatant were transferred to 96-well plate and analyzed by LC-MS/MS using an Applied Biosystems-Sciex API 4000. Analyte/internal standard peak area ratios were used to evaluate stability. […] An Amour C18 column (2.1×30 mm, 5 μm; Analytical Sales and Services, Pompton Plains, N.J.) was used for chromatographic separation. Mobile phases were 0.1% formic acid, 1 mM triethylamine in water and acetonitrile with a flow rate of 0.35 mL/min. The starting phase was 0% acetonitrile increased to 100% acetonitrile over 3 minutes. Peak areas were integrated using Analyst Software (AB Sciex, Foster City, Calif.).
(In general: Liver microsomes are a subcellular fraction often used to study metabolism.)

The nature of data set [9]: in vitro. It counts as in vitro ADME. The following applies: mouse plasma, compound 1 μM, 37° C.; read-out: Plasma stability (t1/2). How it is done:
as §1

Data set [10] deals with P. berghei ANKA. The data set can be described thus: P. berghei-infected mouse model of malaria. It counts as in vivo. As to conditions: for luciferin signal intensity (parasitemia): read seven days after infection.
Method: Groups of mice were infected with luciferase-based blood-stage P. berghei ANKA by intraperitoneal (ip) injection. […] Seven days after infection, intensity of the luciferin signal was measured, correlating to the parasitemia burden.
Data set [11] can be described thus: In vivo exposure study in mice. Set-up: species or system Swiss Webster mice. As to conditions: 20 mg/kg i.p., Swiss Webster mice. How it is done: We designed a compound exposure study to determine plasma concentration of 12a under similar conditions to the efficacy study.
Animal care and all procedures were conducted at Charles River Laboratories (Wilmington, Mass.) and performed in accordance with the National Institutes of Health Guide for the Care and Use of Laboratory Animals and approved by the institutional animal care and use committee. […] The suspension was administered to unfasted female Swiss Weber mice (n=3) at 20 mg/kg i.p. Plasma samples (10 μL) were removed at 0.25, 0.5, 1, 2, 4, 6 and 8 h and stored at −80° C. Plasma samples were added to ice cold acetonitrile containing the internal standard, glafenine, as appropriate to bring samples into the standard curve range (50-10,000 ng/ml), then centrifuged for 5 minutes at 3200 rpm and the supernatant transferred to a 96-well sample plate for analysis by liquid chromatography-tandem mass spectrometry. The MRM transitions for glafenine and 12a were m/z: 370.9>296.9 and 180.075>119.9, respectively. A Synergi 4 μm Hydro-RP column (250×4.6 mm, 80 Å) was used for chromatographic separation. Mobile phases were 0.1% formic acid in water and acetonitrile with a flow rate of 1.2 mL/min. The starting phase was 0% acetonitrile for 3 minutes, increased to 60% acetonitrile over 6 minutes. Peak areas were integrated using Analyst Software (AB Sciex, Foster City, Calif.).

The subject of data set [12] is MEP pathway metabolites. The data set can be described thus: MEP pathway metabolite assay (LC-MS/MS). As to conditions: 3D7, 65 nM (5× IC50), 10 h. It counts as cell-based, P. falciparum. The source says: Thus, a mass spectrometry-based method was used to quantify the MEP metabolites from untreated P. falciparum versus parasites treated with this compound (FIG. 4). These metabolites include the DXR substrate (1-deoxy-D-xylulose 5-phosphate, DOXP), the DXR product (2-C-methylerythritol 4-phosphate, MEP), and the downstream metabolites (4-diphosphocytidyl-2-C-methylerythritol (CDP-ME) and 2-C-methyl-D-erythritol 2,4-cyclopyrophosphate (MEcPP)).
Cultures were lysed with 5% saponin, the parasite pellets washed with 1× phosphate-buffered saline (PBS), and the pellets stored at −80° C. […]
For LC separation, a Luna-NH2 column (3 um, 150×2 mm, Phenomenex) was used flowing at 0.4 mL/min. […] Metabolites were detected using MRM transitions that were previously optimized using standards. […] For quantification, an external standard curve was prepared using a series of standard samples containing different concentrations of metabolites and fixed concentration of the internal standard. […]

[13] abbreviates: Table 4, growth inhibition, read-out: Pf IC50.
[14] abbreviates: read-out: P. falciparum growth IC50.

The IC50 is the concentration at which inhibition is half-maximal.

For the compound `CC(=O)N(O)C/C=C/P(=O)(O)O` [Compound 2], the IC50 was 18 nM in [1] and 203 nM in [2]. Further, the “Mtb MIC99 Gast/Fe” value in data set [3] (minimal media (GAST-Fe)) is on record as 150^a μg/mL. Further, in [3] (rich media (7H9)), the “Mtb MIC99 7H9” value was >200^a μg/mL.
Turning to `O=CN(O)CCCP(=O)(O)O` [Fosmidomycin, reference compound], the half-maximal inhibitory concentration (IC50) in data set [4] (Table 3, diethyl phosphonate analogs, read-out: P.f. IC50) worked out at 0.175 µg/mL; in [4] (setting [13]), 854 nM; in data set [4] (setting [14]) it was 854 nM. The “resistance of had1 parasites compared with wild-type” value in data set [5] (in words) is reported as “resistant”. Also, the “binding mode to DXR” value in data set [6] is “competitively with substrate DOXP and noncompetitively with cofactor NADPH”.
As for `CC(C)(C)C(=O)OCOP(=O)(/C=C/CN(O)C=O)OCOC(=O)C(C)(C)C` [Compound 18a, [({[(2,2-dimethylpropanoyl)oxy]methoxy}[(1E)-3-(N-hydroxyformamido)prop-1-en-1-yl]phosphoryl)oxy]methyl 2,2-dimethylpropanoate], the values for the half-inhibitory concentration (IC50) in data set [4] (setting [13]), in [4] (setting [14]) and in [7] were 13 nM, 13 nM and above 50000 nM, respectively. The half-life at 1 μM in data set [8] (mouse, microsomes) was below 5 min; in data set [9], below 5 min. Further, the half-life in [8] (mouse liver microsomes, compound 1 μM, 37° C., read-out: Metabolic stability MLM (t1/2)) was below 5 min. Besides, the “drop in luciferin signal intensity compared to vehicle” value in data set [10] (20 mg/kg i.p.) was found to be 3 log. Besides, the results for the “luciferin signal intensity (parasitemia)” value in [10] (20 mg/kg i.p. daily for five days) and in data set [10] (50 mg/kg i.p. daily for five days) were 2.87×10^3 and 2.34×10^3, respectively. Moreover, the “conversion of prodrug to 12a in vivo” value in data set [11] is “rapidly converted to 12a”. The “sensitivity in had1+HAD1-GFP strain” value in data set [5] (mutant supplied with wild-type copy of HAD1) is reported as “restored”. Also, the “resistance of had1 parasites compared with wild-type 3D7” value in [5] (shift of IC50 curve) is reported as 2.5 fold. For the same compound, in data set [12], the “DOXP levels, treated vs untreated parasites” value is given as “did not show significant difference”. Also, the “levels of metabolites downstream of DXR, treated vs untreated parasites” value in data set [12] (MEP, CDP-ME, MEcPP) is “reduced levels”.
